Measured values taken from ChEMBL document CHEMBL1201862, “PubChem BioAssay data set” (2004).
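How tested: cells in 96-well plates exposed to compound for 48 hours at five concentrations. Here, GI50 denotes the concentration required for 50% inhibition of growth.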 Calls of active or inactive are those of the source. Rule as the data show it: active = GI50 up to about 1.1 µM and inactive = higher.

Experiments:
Test in all cases: NCI tumour cell line growth inhibition, 48 h
HOP-92 = system: HOP-92
KM12 = system: KM12
SK-MEL-2 = system: SK-MEL-2
MOLT-4 = system: MOLT-4
M19-MEL = system: M19-MEL
786-0 = system: 786-0
EKVX = system: EKVX
HT-29 = system: HT-29
NCI-H226 = system: NCI-H226
HCC 2998 = system: HCC 2998
OVCAR-8 = system: OVCAR-8
SF-268 = system: SF-268
M14 = system: M14
U-251 = system: U-251
COLO 205 = system: COLO 205
LOX IMVI = system: LOX IMVI
SK-MEL-28 = system: SK-MEL-28
T47D = system: T47D
BT-549 = system: BT-549
NCI/ADR-RES = system: NCI/ADR-RES

Measured: GI50

COc1ccc(OC)c(NC(=O)CCC/C(CC(=O)c2ccc(O)c(OC)c2)=N\Nc2ccc([N+](=O)[O-])cc2)c1
inactive: HOP-92 34.3 µM | KM12 94.6 µM | SK-MEL-2 51.8 µM | MOLT-4 > 100 µM | M19-MEL > 100 µM | 786-0 27.6 µM | EKVX 59 µM | HT-29 > 100 µM | NCI-H226 > 100 µM | HCC 2998 > 100 µM | OVCAR-8 28.2 µM | SF-268 > 100 µM | M14 > 100 µM | U-251 32.1 µM | COLO 205 > 100 µM | LOX IMVI 40.8 µM

NC1=NN(c2ccccc2)C(=O)C1C(=O)C(=O)Nc1nccs1 (stereo not drawn)
inactive: SK-MEL-28 > 100 µM | HOP-92 > 100 µM | KM12 > 100 µM | SK-MEL-2 > 100 µM | MOLT-4 > 100 µM | M19-MEL > 100 µM | 786-0 > 100 µM | EKVX > 100 µM | HT-29 > 100 µM | NCI-H226 > 100 µM | HCC 2998 > 100 µM | OVCAR-8 > 100 µM | SF-268 > 100 µM | M14 > 100 µM | U-251 > 100 µM | COLO 205 > 100 µM | LOX IMVI > 100 µM

O=C(C(=O)N1CC2C=CC1CC2)c1c[nH]c2ccccc12 (stereo not drawn)
inactive: HOP-92 > 100 µM | KM12 > 100 µM | SK-MEL-2 > 100 µM | MOLT-4 > 100 µM | M19-MEL > 100 µM | 786-0 > 100 µM | HT-29 > 100 µM | NCI-H226 > 100 µM | HCC 2998 > 100 µM | OVCAR-8 > 100 µM | SF-268 > 100 µM | M14 > 100 µM | U-251 > 100 µM | COLO 205 > 100 µM | LOX IMVI > 100 µM

Cc1ccc2nc(NC(=O)C(=O)C(C(=O)c3ccc4ccccc4c3)C3OC(=O)c4ccccc43)sc2c1 (stereo not drawn)
inactive: SK-MEL-28 5.21 µM | HOP-92 3.53 µM | KM12 16.8 µM | SK-MEL-2 14.4 µM | M19-MEL 14.5 µM | 786-0 6.15 µM | EKVX 17.5 µM | HT-29 15.2 µM | NCI-H226 2.1 µM | HCC 2998 11.3 µM | OVCAR-8 7.74 µM | SF-268 8.3 µM | M14 15 µM | U-251 2.81 µM | COLO 205 15.1 µM | LOX IMVI 10.2 µM

COc1ccc(-c2cc(=O)c3ccccc3[nH]2)c(OC)c1
inactive: SK-MEL-28 > 100 µM | KM12 > 100 µM | MOLT-4 > 100 µM | M19-MEL > 100 µM | 786-0 > 100 µM | EKVX > 100 µM | HT-29 > 100 µM | HCC 2998 > 10 µM | OVCAR-8 > 100 µM | SF-268 > 100 µM | M14 > 100 µM | U-251 > 100 µM | COLO 205 > 100 µM | LOX IMVI > 100 µM

CC(=O)O[C@H]1CC[C@@]2(C)C(=CC[C@@H]3C2CC[C@]2(C)Nc4[nH]ncc4CC32)C1 (stereo partly drawn)
inactive: SK-MEL-28 32.2 µM | KM12 16.6 µM | SK-MEL-2 28.2 µM | MOLT-4 15.4 µM | M19-MEL 24.7 µM | 786-0 > 100 µM | EKVX 29.8 µM | HT-29 16.9 µM | NCI-H226 > 100 µM | HCC 2998 > 100 µM | OVCAR-8 29.9 µM | M14 19.7 µM | U-251 15 µM

N#CCC(=O)N/N=C1/C(=O)NC(=O)C(=O)C1c1nc2ccccc2s1 (stereo not drawn)
inactive: SK-MEL-28 > 100 µM | HOP-92 67.5 µM | SK-MEL-2 > 100 µM | MOLT-4 > 100 µM | M19-MEL > 100 µM | 786-0 > 100 µM | EKVX > 100 µM | HT-29 > 100 µM | NCI-H226 50.1 µM | HCC 2998 > 100 µM | OVCAR-8 > 100 µM | SF-268 > 100 µM | M14 > 100 µM | U-251 > 100 µM | COLO 205 > 100 µM | LOX IMVI > 100 µM

CCC(C)Cn1c(C)nc2c1C(=O)c1ccccc1C2=O (stereo not drawn)
inactive: SK-MEL-28 37.2 µM | HOP-92 20.4 µM | KM12 27.9 µM | SK-MEL-2 33.1 µM | MOLT-4 2.91 µM | M19-MEL 18.1 µM | 786-0 23.1 µM | EKVX 31.9 µM | HT-29 28.2 µM | NCI-H226 > 100 µM | HCC 2998 47.4 µM | OVCAR-8 32.9 µM | SF-268 23.9 µM | M14 42.3 µM | U-251 20.5 µM | COLO 205 19.8 µM | LOX IMVI 19.4 µM

CCCCCCCCCCCCOP(N)(=O)OCCCCCCCCCCCC
inactive: SK-MEL-28 > 100 µM | MOLT-4 > 100 µM | M19-MEL > 100 µM | 786-0 > 100 µM | EKVX > 100 µM | HCC 2998 > 100 µM | OVCAR-8 > 100 µM | SF-268 > 100 µM | M14 > 100 µM | U-251 > 100 µM | COLO 205 > 100 µM | LOX IMVI > 100 µM

CC1(C)C(=O)C(C)(C)C1=S
inactive: SK-MEL-28 > 100 µM | KM12 > 100 µM | SK-MEL-2 > 100 µM | MOLT-4 > 100 µM | M19-MEL > 100 µM | 786-0 > 100 µM | EKVX > 100 µM | HT-29 > 100 µM | NCI-H226 > 100 µM | HCC 2998 > 100 µM | OVCAR-8 > 100 µM | SF-268 > 100 µM | M14 > 100 µM | U-251 > 100 µM | COLO 205 > 100 µM | LOX IMVI > 100 µM

COC(C)(C)[C@H](O)C(O)CC(C)[C@@H]1CCC23CC12CCC1[C@@]2(C)CCC(OC(C)=O)C(C)(C)C2CC(OC2OC(COC(C)=O)C(O)C(O)C2O)[C@]13C (stereo partly drawn)
inactive: SK-MEL-28 4.26 µM | HOP-92 3.72 µM | KM12 2.16 µM | SK-MEL-2 9.29 µM | MOLT-4 4.19 µM | M19-MEL 3.01 µM | 786-0 6.58 µM | EKVX 7.46 µM | HT-29 1.22 µM | NCI-H226 8.32 µM | HCC 2998 1.57 µM | OVCAR-8 4.56 µM | SF-268 3.48 µM | M14 2.77 µM | U-251 2.67 µM | COLO 205 3.48 µM | LOX IMVI 2.79 µM

O=c1ccc2ccc(O)cc2o1 [UMBELLIFERONE]
inactive: SK-MEL-28 > 100 µM | HOP-92 > 100 µM | T47D > 100 µM | KM12 > 100 µM | BT-549 > 100 µM | SK-MEL-2 > 100 µM | MOLT-4 > 100 µM | 786-0 > 100 µM | EKVX > 100 µM | HT-29 > 100 µM | NCI-H226 > 100 µM | HCC 2998 88.7 µM | OVCAR-8 > 100 µM | SF-268 > 100 µM | M14 > 100 µM | U-251 > 100 µM | COLO 205 > 100 µM | LOX IMVI > 100 µM | NCI/ADR-RES > 100 µM
